Data reported in patent publication US8957093B2, “N-biphenylmethylindole modulators of PPARG” (The Scripps Research Institute, priority 2011, dated 2015).
Where two headings read alike, the source gives them in different places.

Legend:
GST-PPARG-LBD = GST-PPARG-LBD (Homo sapiens (Human), UniProt P37231); test: Lanthascreen PPARG competitive binding assay (Invitrogen, TR-FRET); details: NA = not active, inc = incomplete curve, read-out: IC50 (nM) Lantha
Outline: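 Values are fold change in 520 nm/490 nm FRET ratio relative to a 2% DMSO no-ligand control, excitation 340 nm. Compound dilutions starting at 10 μM competed against 5 nM Fluormone Pan-PPAR Green for GST-PPARG-LBD bound by 5 nM Tb anti-GST antibody. Incubation 2 h in the dark in assay buffer C, triplicate wells.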

[1] = molecular target: PPARG (murine PPARg2 or full-length human PPARG, 3xPPRE-luciferase reporter) (Homo sapiens, UniProt P37231); test: Cell-based PPRE-luciferase transactivation assay in COS-1 cells
Description: (§1) Cell-Based Transactivation Assay:
(§2) PPRE is a DNA that contains a binding site for PPARG; thus PPRE is a PPAR response element, used herein as a promoter reporter. The binding site is a DR1 response element with the sequence AGGTCA repeated 3 times in tandem and then fused to a construct for luciferase.
(§3) Thus, PPRE is the basis of the cell based transactivation assay described below. The plasmid DNA is co-transfected along with a plasmid for PPARG into COS-1 cells. After an overnight incubation, cells are treated with DMSO or compounds.
(§4) Confluent COS-1 cells were transfected with 4.5 μg murine PPARg2-pSV Sport or full-length human PPAR9-pSport6, 4.5 μg 3×PPRE-luciferase reporter and 27 μL X-treme Gene 9 transfection reagent in serum-free opti-mem media (Gibco), followed by overnight incubation at 37° C., 5% CO2. Transfected cells were plated in white Perkin Elmer 384-well plates and incubated 4 hours. […] After 18 hour incubation, treated cells were developed with Brite Lite Plus (Perkin Elmer) and read in 384-well Luminescence Perkin Elmer EnVision Multilabel plate reader. Graphs were plotted in triplicate in GraphPad Prism Software as fold change of treated cells over DMSO control cells.

[2] = system: PPARG (murine PPARg2 or full-length human PPARG, 3xPPRE-luciferase reporter); test: as above; details: for % transactivation (PPRE): PPRE transactivation data, at 10 μM
Description: as §1, §2, §3, §4

[3] = molecular target: Rb protein (cdk5 substrate) (Homo sapiens (Human), UniProt Q00535); test: cdk5 phosphorylation of Rb protein in vitro (Western blot); format: biochemical
Source text: In order to develop a suitable ligand, we optimized compounds for (i) high binding affinity for PPARG, (ii) blocking the cdk5-mediated PPARG phosphorylation and (iii) lacking classical agonism. Classical agonism is defined here, as is standard in the nuclear receptor field, as an increased level of transcription through a tandem PPAR response element luciferase reporter (PPRE::Luc).

pre-adipose cell lines = test: Fat cell differentiation (Oil Red O staining, adipogenic gene expression); format: cell-based
MC3T3-E1 cells = test: Mineralization of osteoblastic cells (Alizarin red S staining, osteoblast gene expression); format: cell-based, mouse
Source text: Moreover, the expression of genes involved in the differentiation of these cells was impaired (alkaline phosphatase, RANKL, type I collagen).

ob/ob mouse = test: Leptin-deficient ob/ob mouse model; details: ob/ob mice
Description: A more severe model of obesity is the leptin-deficient ob/ob mouse. These animals are very obese and insulin-resistant, with substantial compensatory hyperinsulinemia. […] Functional analyses were performed at days 5 and 11 after the start of treatments.
Longer treatments with these drugs allowed an assessment of certain side effects.

RAW264.7 cells = test: Inflammatory cytokine production in LPS stimulated RAW264.7 cells; format: cell-based
[4] = Lanthascreen competitive binding
[5] = PPRE-luciferase, COS-1 cells, NA = not active, read-out: EC50 (nM) PPRE

Sequence of GST-PPARG-LBD (P37231 238-503): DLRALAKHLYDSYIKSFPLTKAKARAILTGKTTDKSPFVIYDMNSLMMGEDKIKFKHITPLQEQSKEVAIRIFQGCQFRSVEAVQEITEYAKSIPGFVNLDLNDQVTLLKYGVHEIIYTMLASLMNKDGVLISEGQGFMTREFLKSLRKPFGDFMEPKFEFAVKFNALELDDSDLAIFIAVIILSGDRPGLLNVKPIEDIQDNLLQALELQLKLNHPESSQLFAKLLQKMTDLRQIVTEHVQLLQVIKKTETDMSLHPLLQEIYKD
Sequence of PPARG (murine PPARg2 or full-length human PPARG, 3xPPRE-luciferase reporter) (Homo sapiens, UniProt P37231) (P37231 whole entry, looked up): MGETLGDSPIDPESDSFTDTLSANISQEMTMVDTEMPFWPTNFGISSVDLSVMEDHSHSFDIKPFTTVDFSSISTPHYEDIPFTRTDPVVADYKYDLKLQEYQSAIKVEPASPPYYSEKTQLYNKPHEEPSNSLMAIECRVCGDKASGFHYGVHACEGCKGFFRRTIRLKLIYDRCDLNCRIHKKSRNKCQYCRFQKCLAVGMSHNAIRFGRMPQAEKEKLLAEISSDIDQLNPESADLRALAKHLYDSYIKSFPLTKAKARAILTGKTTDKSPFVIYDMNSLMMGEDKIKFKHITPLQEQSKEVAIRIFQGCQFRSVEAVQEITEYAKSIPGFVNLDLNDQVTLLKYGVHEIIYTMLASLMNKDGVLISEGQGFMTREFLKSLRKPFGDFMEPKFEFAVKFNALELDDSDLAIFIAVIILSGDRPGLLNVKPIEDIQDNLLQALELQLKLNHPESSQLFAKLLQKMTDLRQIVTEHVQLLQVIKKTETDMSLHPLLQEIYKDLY

Structure (SMILES) | IC50 (GST-PPARG-LBD; [4]) [nM] | PPRE transactivation (% in parentheses) ([2]; rosiglitazone = 100%) | EC50 [2, 5] [nM] | also measured
Cc1c(C)n(Cc2ccc(-c3ccccc3C(=O)O)cc2)c2ccc(C(=O)N[C@H]3COc4ccccc4C3)cc12 [Example 249, (R)-4′-((5-(chroman-3-ylcarbamoyl)-2,3-dimethyl-1H-indol-1-yl)methyl)-[1,1′-biphenyl]-2-carboxylic acid] | 22 | (1%) |  | EC50 [1, 5]: 80 nM
CN(CCOc1ccc(CC2SC(=O)NC2=O)cc1)c1ccccn1 (stereo not drawn) [rosiglitazone, reference compound] |  | […] |  | activation of the PPRE reporter ([2]; COS-1 cells): […]; % transactivation (PPRE) [2]: […]; EC50 ([2]; read-out: EC50 (nM) PPRE): […]; EC50 ([2]; read-out: PPRE EC50): […]; effect on cdk5 phosphorylation of the Rb protein [3]: no effect; fat cell differentiation / lipid accumulation (pre-adipose cell lines; Oil Red O staining): potently stimulated fat cell differentiation; expression of aP2, C/EBPα and Glut4 (pre-adipose cell lines; genes linked to adipogenesis): increased expression; expression of osteoblast differentiation genes (alkaline phosphatase, RANKL, type I collagen) (MC3T3-E1 cells): impaired; mineralization (calcification) (MC3T3-E1 cells; Alizarin red S staining): reduced the mineralization; glucose tolerance test (ob/ob mouse): markedly improved; insulin levels (ob/ob mouse; after five days of treatment): substantially reduced; fasting glucose levels (ob/ob mouse; after five days of treatment, vehicle 110±13): 88 ± 13 mg/dL; body fat / adiposity by MRI (ob/ob mouse; longer treatment): increase in body fat; concentration of hemoglobin (ob/ob mouse; longer treatment): […]; hematocrit (fluid retention) (ob/ob mouse; longer treatment): characteristic decrease; body weight (ob/ob mouse; longer treatment (11 days)): increase in body weight; production of inflammatory cytokines (RAW264.7 cells): inhibition of production of inflammatory cytokines
COc1cccc([C@H](C)NC(=O)c2ccc3c(c2)c(C)c(C)n3Cc2ccc(-c3ccccc3C(=O)O)cc2)c1 [compound 21, (S)-4′-((5-(1-(3-Methoxyphenyl)ethylcarbamoyl)-2,3-dimethyl-1H-indol-1-yl)methyl)biphenyl-2-carboxylic acid] | 13 | (12%) | 46 | 
C[C@H](NC(=O)c1ccc2c(ccn2Cc2ccc(-c3ccc(O)cc3)cc2)c1)c1ccc([N+](=O)[O-])cc1 [Example 47, (S)-1-((4′-Hydroxy-[1,1′-biphenyl]-4-yl)methyl)-N-(1-(4-nitrophenyl)ethyl)-1H-indole-5-carboxamide] | 300 | (0%) |  | 
CCC[C@H](NC(=O)c1ccc2c(c1)c(C)c(C)n2Cc1ccc(-c2ccccc2C(=O)O)cc1)c1ccccc1 [Example 114, (S)-4′-((2,3-dimethyl-5-(1-phenylbutylcarbamoyl)-1H-indol-1-yl)methyl)biphenyl-2-carboxylic acid] | 0.8 | (14%) | 8 | 
CCC(NC(=O)c1ccc2c(ccn2Cc2cccc(-c3ccccc3C(=O)O)c2)c1)c1ccccc1 (stereo not drawn) [Example 65, 3′-((5-((1-phenylpropyl)carbamoyl)-1H-indol-1-yl)methyl)-[1,1′-biphenyl]-2-carboxylic acid] | 6 | (18%) | 116 | 
Cc1c(C)n(Cc2ccc(-c3ccccc3C(=O)O)cc2)c2ccc(C(=O)N[C@@H](C)c3cccc(Br)c3)cc12 [compound 30, (S)-4′-((5-((1-(3-Bromophenyl)ethyl)carbamoyl)-2,3-dimethyl-1H-indol-1-yl)methyl)-[1,1′-biphenyl]-2-carboxylic acid] | 58 |  |  | PPRE transactivation (% in parentheses) [2]: (18%); EC50 ([2]; read-out: EC50 (nM) PPRE): 20 nM
Cc1c(C)n(Cc2ccc(-c3ccccc3C(=O)O)cc2)c2ccc(C(=O)NCc3ccc(Cl)cc3)cc12 [compound 14, 4′-((5-(4-Chlorobenzylcarbamoyl)-2,3-dimethyl-1H-indol-1-yl)methyl)biphenyl-2-carboxylic acid] | 4 | (21%) | 70 | 
Cc1c(C)n(Cc2ccc(-c3ccccc3C(=O)O)cc2)c2ccc(C(=O)NC(C)c3cccc4ccccc34)cc12 (stereo not drawn) [Example 116, 4′-((2,3-dimethyl-5-(1-(naphthalen-1-yl)ethylcarbamoyl)-1H-indol-1-yl)methyl)biphenyl-2-carboxylic acid] | 2 | (16%) | 5 | 
Cc1c(C)n(Cc2ccc(-c3ccccc3C(=O)O)cc2)c2ccc(C(=O)NCc3cccc(OC(F)(F)F)c3)cc12 [compound 5, 4′-((2,3-Dimethyl-5-(3-(trifluoromethoxy)benzylcarbamoyl)-1H-indol-1-yl)methyl)biphenyl-2-carboxylic acid] | 157 | (0%) |  | 
Cc1ccc(CNC(=O)c2ccc3c(c2)c(C)c(C)n3Cc2ccc(-c3ccccc3C(=O)O)cc2)o1 [Example 84, 4′-((2,3-dimethyl-5-((5-methylfuran-2-yl)methylcarbamoyl)-1H-indol-1-yl)methyl)biphenyl-2-carboxylic acid] | 12 | (17%) | 40 | 
Cc1c(C)n(Cc2ccc(-c3ccccc3C(=O)O)cc2)c2ccc(C(=O)NCc3cccc(Cl)c3)cc12 [Example 109, 4′-((5-(3-chlorobenzylcarbamoyl)-2,3-dimethyl-1H-indol-1-yl)methyl)biphenyl-2-carboxylic acid] | 2 | (21%) | 12 | 
CCC(NC(=O)c1ccc2c(ccn2Cc2ccccc2-c2cccc(C(=O)O)c2)c1)c1ccccc1 (stereo not drawn) [Example 69, 2′-((5-((1-Phenylpropyl)carbamoyl)-1H-indol-1-yl)methyl)-[1,1′-biphenyl]-3-carboxylic acid] | 4 | (0%) |  | 
Cc1c(C)n(Cc2ccc(-c3ccccc3C(=O)O)cc2)c2ccc(C(=O)NCc3ccc(N(C)C)cc3)cc12 [compound 11, 4′-((5-(4-(Dimethylamino)benzylcarbamoyl)-2,3-dimethyl-1H-indol-1-yl)methyl)biphenyl-2-carboxylic acid] | 13 | (29%) | 154 | 
Cc1c(C)n(Cc2ccc(-c3ccccc3C(=O)O)cc2)c2ccc(C(=O)N[C@@H]3C[C@H]3c3ccccc3)cc12 [Example 294, 4′-((2,3-Dimethyl-5-(((1R,2S)-2-phenylcyclopropyl)carbamoyl)-1H-indol-1-yl)methyl)-[1,1′-biphenyl]-2-carboxylic acid] |  |  |  | IC50 (GST-PPARG-LBD; Lanthascreen PPARG competitive binding): 22 nM; EC50 ([1]; PPRE transactivation data, read-out: PPRE EC50): 517 nM; % transactivation (PPRE) [2]: (28%)
COC(=O)c1ccc(CNC(=O)c2ccc3c(c2)c(C)c(C)n3Cc2ccc(-c3ccccc3C(=O)O)cc2)cc1 [compound 16, 4′-((5-(4-(Methoxycarbonyl)benzylcarbamoyl)-2,3-dimethyl-1H-indol-1-yl)methyl)biphenyl-2-carboxylic acid] | 2 | (23%) | 59 | 
CCC(NC(=O)c1ccc2c(ccn2Cc2ccc(-c3ccccc3C(=O)O)cc2)c1)c1ccccc1 (stereo not drawn) [Example 131, 4′-((5-((1-Phenylpropyl)carbamoyl)-1H-indol-1-yl)methyl)-[1,1′-biphenyl]-2-carboxylic acid] | 6 | (20%) | 6 | 
